This note sets out measurements from PMC7893122 (Acta Pharmaceutica Sinica. B, 2020).

SMILES strings stand for the structures.

The target of one data set is BRD4 (BD1) (Homo sapiens, UniProt O60885). The data set is described as follows: Homogeneous time-resolved fluorescence binding assay, BRD4. Particulars: for IC50: IC50 BRD4 (BD1), mean ± SD from three separate experiments; for fold less potent than compound 2 against BRD4: ratio of IC50 values.
Another data set deals with hERG channel (Homo sapiens, UniProt Q12809). The data set is described as follows: hERG inhibition. It counts as cell-based.
Sequence of hERG channel (Q12809 whole entry): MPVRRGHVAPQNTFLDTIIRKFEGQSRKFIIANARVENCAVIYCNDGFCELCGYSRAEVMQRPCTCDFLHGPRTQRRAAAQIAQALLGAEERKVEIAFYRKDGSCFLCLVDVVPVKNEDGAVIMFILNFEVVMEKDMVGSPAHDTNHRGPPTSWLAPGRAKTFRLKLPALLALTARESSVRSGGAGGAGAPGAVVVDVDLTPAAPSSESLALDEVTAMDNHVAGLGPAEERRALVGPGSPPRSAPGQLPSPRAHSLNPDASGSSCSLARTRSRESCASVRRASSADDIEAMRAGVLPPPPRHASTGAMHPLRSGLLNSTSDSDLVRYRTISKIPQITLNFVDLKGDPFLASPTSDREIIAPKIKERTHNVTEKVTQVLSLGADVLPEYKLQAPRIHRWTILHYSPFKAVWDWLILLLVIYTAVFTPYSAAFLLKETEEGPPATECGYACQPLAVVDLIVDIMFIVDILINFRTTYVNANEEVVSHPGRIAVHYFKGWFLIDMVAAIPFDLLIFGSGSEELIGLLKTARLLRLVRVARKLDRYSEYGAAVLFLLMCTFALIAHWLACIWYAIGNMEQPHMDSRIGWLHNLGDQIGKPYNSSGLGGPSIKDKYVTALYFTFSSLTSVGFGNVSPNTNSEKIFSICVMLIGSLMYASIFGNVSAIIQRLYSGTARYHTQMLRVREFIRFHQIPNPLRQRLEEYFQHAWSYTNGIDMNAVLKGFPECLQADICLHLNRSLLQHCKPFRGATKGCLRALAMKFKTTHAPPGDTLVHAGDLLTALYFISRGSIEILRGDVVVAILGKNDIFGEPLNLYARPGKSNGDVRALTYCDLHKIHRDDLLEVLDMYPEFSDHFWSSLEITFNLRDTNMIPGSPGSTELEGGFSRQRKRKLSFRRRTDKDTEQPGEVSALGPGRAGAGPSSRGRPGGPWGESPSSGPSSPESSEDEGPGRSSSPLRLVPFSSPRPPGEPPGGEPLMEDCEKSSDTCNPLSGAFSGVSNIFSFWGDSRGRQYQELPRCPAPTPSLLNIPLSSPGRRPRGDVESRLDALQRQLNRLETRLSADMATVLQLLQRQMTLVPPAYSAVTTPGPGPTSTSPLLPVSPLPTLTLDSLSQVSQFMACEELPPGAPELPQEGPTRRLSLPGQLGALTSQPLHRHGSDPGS
Data set [1] deals with HH signaling pathway (GLI-responsive firefly luciferase reporter). Kind of data set: Dual luciferase reporter assay. It counts as cell-based. Conditions: for IC50: read-out: IC50 GLI-luc reporter.
Data set [2] can be described thus: Pharmacokinetics in Sprague–Dawley rats. It counts as in vivo. Particulars: rat; for AUC(0-inf) / AUC(0-t) / MRT inf / clearance / half-life / Cmax / Tmax: Sprague-Dawley, plasma; for Vss_obs: i.v. 1 mg/kg.

For the compound `Cn1cc(-c2cc(N3CCCS3(=O)=O)ccc2Oc2ccc(F)cc2F)c2cc(C(N)=O)[nH]c2c1=O` [Compound 28], the values for the IC50 (on BRD4 (BD1); against hERG channel; in data set [1]) were 0.09 ± 0.04 nM, > 40000 nM and 1.5 ± 0.39 nM, respectively. For the same compound, the “fold less potent for the HH pathway than against BRD4” value in data set [1] (GLI-luc IC50 vs BRD4 (BD1) IC50) was determined as 16 fold.
`CCS(=O)(=O)Nc1ccc(Oc2ccc(F)cc2F)c(-c2cc(Nc3ccccn3)c(=O)n(C)c2)c1` [Compound 10]: the half-maximal inhibitory concentration (IC50) (at BRD4 (BD1); in data set [1]) was > 100 nM throughout.
Turning to `COc1nnc2ccc(N3CCC(c4ccc(OCCN5CCN(C)C(=O)[C@H]5C)cc4)CC3)nn12` [AZD5153 (4), (3R)-4-[2-[4-[1-(3-methoxy-[1,2,4]triazolo[4,3-b]pyridazin-6-yl)-4-piperidyl]phenoxy]ethyl]-1,3-dimethyl-piperazin-2-one, reference compound], the values for the IC50 (on BRD4 (BD1); in data set [1]) were 18.2 ± 2.7 nM and 32.1 ± 7.71 nM, respectively.
For the compound `CCS(=O)(=O)Nc1ccc(Oc2ccc(F)cc2F)c(-c2cn(C)c(=O)c3[nH]ccc23)c1` [Compound 2, N-(4-(2,4-difluorophenoxy)-3-(6-methyl-7-oxo-6,7-dihydro-1H-pyrrolo[2,3-c]pyridin-4-yl)phenyl)ethanesulfonamide, reference compound], the IC50 on BRD4 (BD1) came out at 3.4 ± 0.2 nM. Moreover, 35500 nM corresponded to half-maximal inhibition against hERG channel (IC50). Further, the “fold selectivity for the HH pathway against BRD4 (fold less potent against BRD4)” value in data set [1] (BRD4 (BD1) IC50 vs GLI-luc IC50) is listed as ~10 fold. In data set [1], the IC50 turned out to be 0.41 ± 0.34 nM. In data set [2] (iv, 1 mg/kg), this compound showed an AUC(0-inf) of 1200 ng·h/mL, an AUC(0-t) of 1190 ng·h/mL, an MRT inf of 3.11 h and a clearance of 17.6 mL/min/kg. In data set [2] (iv, 1 mg/kg), this compound had a half-life of 2.74 h. In addition, in data set [2] (po, 3 mg/kg), the area under the curve AUC(0-inf) turned out to be 2050 ng·h/mL, the AUC(0-t) was 2030 ng·h/mL, the Cmax came out at 401 ng/mL and the MRT inf turned out to be 5.45 h. For the same compound, in data set [2] (po, 3 mg/kg), the Tmax is 2.75 h and the half-life was 3.34 h. In addition, the Vss_obs in data set [2] was 2.772 L/kg.
With `Cn1cc(-c2cc(N3CCCS3(=O)=O)ccc2Oc2ccc(F)cc2F)c2cc(C(=O)O)[nH]c2c1=O` [Compound 26], at BRD4 (BD1), the IC50 is 21 ± 11 nM and the “fold less potent than compound 2 against BRD4” value is > 4 fold. Besides, in data set [1], the IC50 is > 100 nM.
Regarding `Cn1cc(-c2cc(N3CCCN(CCN4CCC(CO)C4)S3(=O)=O)ccc2Oc2ccc(F)cc2F)c2cc[nH]c2c1=O` (stereo not shown) [Compound 22], the half-maximal inhibitory concentration (IC50) in data set [1] is > 100 nM.
On BRD4 (BD1), `CCNC(=O)c1cc2c(-c3cc(N4CCCS4(=O)=O)ccc3Oc3ccc(F)cc3F)cn(C)c(=O)c2[nH]1` [Compound 30] yielded a 50% inhibitory concentration (IC50) of 0.6 ± 0.41 nM. The IC50 against hERG channel was 6400 nM. In addition, in data set [1], the IC50 is 0.05 ± 0.01 nM. For the same compound, in data set [2] (iv, 1 mg/kg), the AUC(0-inf) amounted to 278 ng·h/mL, the AUC(0-t) is 278 ng·h/mL, the MRT inf worked out at 0.794 h and the clearance came to 61.5 mL/min/kg. In data set [2] (iv, 1 mg/kg), this compound gave a half-life of 0.68 h. Moreover, in data set [2] (po, 3 mg/kg), the AUC(0-inf) amounted to 9.91 ng·h/mL, the AUC(0-t) was determined as 9.91 ng·h/mL, the highest level (Cmax) was 15.2 ng/mL and the MRT inf stood at 0.89 h. Moreover, in data set [2] (po, 3 mg/kg), the Tmax was determined as 0.25 h and the half-life is 1.35 h. In data set [2], this compound yielded a Vss_obs of 2.891 L/kg.
With `Cn1cc(-c2cc(N3CCCS3(=O)=O)ccc2Oc2ccc3occc3c2)c2cc[nH]c2c1=O` [Compound 33], the IC50 turned out to be 2.85 ± 0.5 nM on BRD4 (BD1) and 1.03 ± 0.28 nM in data set [1].
Turning to `Cn1cc(-c2cc(N3CCCCS3(=O)=O)ccc2Oc2ccc(F)cc2F)c2cc(C(=O)O)[nH]c2c1=O` [Compound 27], the IC50 was 14.3 ± 4.52 nM at BRD4 (BD1) and > 100 nM in data set [1]. Further, on BRD4 (BD1), the “fold less potent than compound 2 against BRD4” value is given as > 4 fold.
On to `CN1CCN(CCCNC(=O)c2cc3c(-c4cc(N5CCCS5(=O)=O)ccc4Oc4ccc(F)cc4F)cn(C)c(=O)c3[nH]2)CC1` [Compound 32], for which the IC50 on BRD4 (BD1) was 0.75 ± 0.07 nM; in data set [1] it was > 100 nM.
For `Cn1cc(-c2cc(N3CCC(CO)S3(=O)=O)ccc2Oc2ccc(F)cc2F)c2cc[nH]c2c1=O` (stereo not shown) [Compound 12], the values for the IC50 (at BRD4 (BD1); in data set [1]) were 0.25 ± 0.05 nM and 3.29 ± 0.14 nM, respectively.
Take `CCCC(=O)Nc1cc(-c2cc(NS(=O)(=O)CC)ccc2Oc2ccc(F)cc2F)cn(C)c1=O` [Compound 7]: the IC50 (on BRD4 (BD1); in data set [1]) was > 100 nM each time.
Turning to `CCS(=O)(=O)Nc1ccc(Oc2ccc(F)cc2F)c(-c2cc(NS(=O)(=O)CC)c(=O)n(C)c2)c1` [Compound 8], the IC50 is 42.8 ± 9.6 nM on BRD4 (BD1) and > 100 nM in data set [1].
Turning to `Cc1nnn(C)c1-c1cnc2c3ccc(C(C)(C)O)cc3n([C@H](c3ccccc3)C3CCOCC3)c2c1` [BMS-986158 (1), reference compound], the IC50 on BRD4 (BD1) was < 0.16 nM; in data set [1], 0.15 ± 0.05 nM.
For `CN(C)CCN1CCCN(c2ccc(Oc3ccc(F)cc3F)c(-c3cn(C)c(=O)c4[nH]ccc34)c2)S1(=O)=O` [Compound 18], the IC50 on BRD4 (BD1) was determined as 1.52 ± 0.72 nM; in data set [1], 56.1 ± 8.25 nM.
On to `Cn1cc(-c2cc(N3CCCCS3(=O)=O)ccc2Oc2ccc(F)cc2F)c2cc(C(N)=O)[nH]c2c1=O` [Compound 29], for which the IC50 amounted to 0.09 ± 0.08 nM at BRD4 (BD1) and 2.46 ± 0.3 nM in data set [1].
With `Cn1cc(-c2cc(N3CCCC(CO)S3(=O)=O)ccc2Oc2ccc(F)cc2F)c2cc[nH]c2c1=O` (stereo not shown) [Compound 13], the IC50 is 0.6 ± 0.07 nM on BRD4 (BD1) and 20.5 ± 7.74 nM in data set [1].
In the case of `CCS(=O)(=O)Nc1ccc(Oc2ccc(F)cc2F)c(-c2cc(Nc3ncc[nH]3)c(=O)n(C)c2)c1` [Compound 9], the IC50 at BRD4 (BD1) was 47.6 ± 2.9 nM; in data set [1] it was > 100 nM.
The corresponding values for `CCS(=O)(=O)Nc1ccc(Oc2ccc(F)cc2F)c(-c2cc(Nc3ccncn3)c(=O)n(C)c2)c1` [Compound 11] are > 100 nM and > 100 nM.
Consider `Cn1cc(-c2cc(N3CCCN(CCN4CCOCC4)S3(=O)=O)ccc2Oc2ccc(F)cc2F)c2cc[nH]c2c1=O` [Compound 19], for which the results for the IC50 (on BRD4 (BD1); in data set [1]) were 1.47 ± 0.03 nM and 17.7 ± 11 nM, respectively.
As for `Cc1sc2c(c1C)C(c1ccc(Cl)cc1)=N[C@@H](CC(=O)Nc1ccc(O)cc1)c1nnc(C)n1-2` [OTX-015, reference compound], the IC50 in data set [1] was 0.64 ± 0.02 nM.
On to `CCS(=O)(=O)Nc1ccc(Oc2ccc(F)cc2F)c(-c2cc(NC(=O)OCCOC)c(=O)n(C)c2)c1` [Compound 6], for which the IC50 (on BRD4 (BD1); in data set [1]) was > 100 nM each time.
For `CN1C(=O)C(C)(C)Oc2c(-c3cn(C)c(=O)c4[nH]ccc34)cc(S(C)(=O)=O)cc21` [INCB-057643, reference compound], the figures for the IC50 (on BRD4 (BD1); in data set [1]) were 11.6 ± 1.8 nM and 40.6 ± 4.9 nM, respectively.
Take `CCOC(=O)Nc1cc(-c2cc(NS(=O)(=O)CC)ccc2Oc2ccc(F)cc2F)cn(C)c1=O` [Compound 5]: at BRD4 (BD1), the IC50 was 27.6 ± 5.7 nM and the “fold less potent than compound 2 against BRD4” value is reported as 8 fold. In addition, the 50% inhibitory concentration (IC50) in data set [1] is 157 ± 1.3 nM.
For `CN(CCO)CCN1CCCN(c2ccc(Oc3ccc(F)cc3F)c(-c3cn(C)c(=O)c4[nH]ccc34)c2)S1(=O)=O` [Compound 20], the IC50 on BRD4 (BD1) is 1.01 ± 0.34 nM; in data set [1] it was 42.8 ± 30.7 nM.
As for `Cc1noc(C)c1-c1cnc2c(-c3ccc(C(=O)O)cc3)cn([C@@H](C)c3ccccn3)c2c1` [PLX51107, reference compound], the IC50 in data set [1] is 5.5 ± 1.3 nM.
As for `Cn1cc(-c2cc(N3CCCCS3(=O)=O)ccc2N[C@@H]2C[C@@H](CO)[C@@H](O)C2)c2cc[nH]c2c1=O` [Compound 39], the results for the half-maximal inhibitory concentration (IC50) (at BRD4 (BD1); in data set [1]) were 3.42 ± 0.25 nM and > 100 nM, respectively.
For `Cn1cc(-c2cc(N3CCCN(CC4(CO)COC4)S3(=O)=O)ccc2Oc2ccc(F)cc2F)c2cc[nH]c2c1=O` [Compound 23], the figures for the IC50 (on BRD4 (BD1); in data set [1]) were 0.58 ± 0.1 nM and 45.8 ± 19.2 nM, respectively.
